In patent US10407428B2, “Spiro-isoquinoline-1,4′-piperidine compounds having multimodal activity against pain” (ESTEVE PHARMACEUTICALS, S.A., priority 2014, dated 2019):
Read-outs that look alike come from different tables or passages of the source.

Molecular target: human σ1 receptor and human μ-opioid receptor
Test: Human σ1 receptor radioligand assay and human μ-opioid receptor radioligand assay (μ and σ1 dual binding)
Parameters: key to μ and σ1 dual binding: +: Both Ki-μ and Ki-σ1>=500 nM; ++: One Ki<500 nM while the other Ki is >=500 nM; +++: Both Ki-μ and Ki-σ1<500 nM; ++++: Both Ki-μ and Ki-σ1<100 nM
[1] = combined class for Ki-μ ([3H]-DAMGO, CHO-K1 membranes) and Ki-σ1 ([3H](+)-pentazocine, HEK-293 membranes)

Compound	Ki	further results
C[C@@H]1CN(C(=O)CN2CCC3(CC2)c2ccccc2CCN3C)C[C@H](C)O1 [Example 115, 1-((2S,6R)-2,6-dimethylmorpholino)-2-(2-methyl-3,4-dihydro-2H-spiro[isoquinoline-1,4′-piperidine]-1′-yl)ethanone]		Ki [1]: ≥ 500 nM
CC(=O)N1CCc2ccccc2C12CCN(CCO)CC2 [Example 41, 1-(1′-(2-Hydroxyethyl)-3,4-dihydro-2H-spiro[isoquinoline-1,4′-piperidine]-2-yl)ethanone]		Ki [1]: ≥ 500 nM
CN(CC1CC1)C(=O)CN1CCC2(CC1)c1ccccc1CCN2C [Example 112, N-(cyclopropylmethyl)-N-methyl-2-(2-methyl-3,4-dihydro-2H-spiro[isoquinoline-1,4′-piperidine]-1′-yl)acetamide]	< 500 nM	
OCCN1CCc2ccccc2C12CCN(CCc1ccncc1)CC2 [Example 129, 2-(1′-(2-(pyridin-4-yl)ethyl)-3,4-dihydro-2H-spiro[isoquinoline-1,4′-piperidine]-2-yl)ethanol]		μ and σ1 dual binding: ++
CN1CCc2ccccc2C12CCN(CC(=O)N1CCOCC1)CC2 [Example 70, 2-(2-methyl-3,4-dihydro-2H-spiro[isoquinoline-1,4′-piperidine]-1′-yl)-1-morpholinoethanone]	< 500 nM	
CN1CCc2ccccc2C12CCN(CC1CCCCC1)CC2 [Example 66, 1′-(cyclohexylmethyl)-2-methyl-3,4-dihydro-2H-spiro[isoquinoline-1,4′-piperidine]]	< 500 nM	
CCC(CC)N(CC)C(=O)CN1CCC2(CC1)c1ccccc1CCN2C [Example 109, N-ethyl-2-(2-methyl-3,4-dihydro-2H-spiro[isoquinoline-1,4′-piperidine]-1′-yl)-N-(pentan-3-yl)acetamide]		μ and σ1 dual binding: ++
OCCN1CCc2ccccc2C12CCN(CCc1ccncc1F)CC2 [Example 130, 2-(1′-(2-(3-Fluoropyridin-4-yl)ethyl)-3,4-dihydro-2H-spiro[isoquinoline-1,4′-piperidine]-2-yl)ethanol]	< 500 nM	
O=C(CN1CCC2(CC1)c1ccccc1CCN2CC(F)(F)F)N1CCCCC1 [Example 135, 1-(piperidin-1-yl)-2-(2-(2,2,2-trifluoroethyl)-3,4-dihydro-2H-spiro[isoquinoline-1,4′-piperidine]-1′-yl)ethanone]		μ and σ1 dual binding: ++
CCN(CC)C(=O)CN1CCC2(CC1)c1ccccc1CCN2CC [Example 155, N,N-diethyl-2-(2-ethyl-3,4-dihydro-2H-spiro[isoquinoline-1,4′-piperidine]-1′-yl)acetamide]	< 500 nM	
CN1CCc2ccccc2C12CCN(CC(=O)N1CCC(C(F)(F)F)CC1)CC2 [Example 91, 2-(2-methyl-3,4-dihydro-2H-spiro[isoquinoline-1,4′-piperidine]-1′-yl)-1-(4-(trifluoromethyl)piperidin-1-yl)ethanone]	< 500 nM	
